In US20150313897A1, “METHODS FOR TREATING PARKINSON'S DISEASE” (Teva Pharmaceuticals International GmbH, priority 2009, published 2015):
Entries after “also recorded” stand apart in the source; their conditions may differ.

Experiments:
Assay type in all cases: in vivo, rhesus monkeys
MPTP treated monkeys [1] = assay: Activity monitoring system (AMS), 12-hour light/dark cycle
Procedure: (§1) In the Experimentation Phase, the monkeys were assigned to one of three treatment groups: Group 1—oral ropinirole TID using the mean lowest effective dose determined in the Dose Finding Phase. Group 2—NP201 releasing ropinirole at a dose of either approximately 1/9th or 1/18th of the total daily oral TID dose), e.g., for a single 1.00 mg/kg oral dose, the daily dose would be 3.00 mg/kg/day and the implant doses would then be 0.33 mg/kg/day or 0.17 mg/kg/day, respectively. Group 3—Control group will receive both a subcutaneous placebo implant and an oral placebo TID.
The activity monitoring system (“AMS”) records a 12-hour light/dark cycle. Each monkey was fitted with a monkey jacket that contained an activity monitor (Actitrac 1M Systems, Baltimore, Md.) in the inside back pocket. This activity monitor measured motion along its vertical and horizontal axes digitizing acceleration signals at a 40 Hertz sampling rate and stored the average acceleration value calculated during each consecutive time interval. The number of pulses was expressed for a pre-selected time period (1 minute). Data was collected continuously in 1-minute bins for a period of to 14 days. At the end of the period, the monkeys were again tranquilized with ketamine (15 mg/kg, intramuscularly), the activity monitor was removed and interfaced with a computer, and the data was downloaded. The data was expressed as the mean activity of each 12-hour light/dark cycle.

[2] = Ropinirole plasma levels (PK) after NP201 implant or TID oral ropinirole; conditions: oral ropinirole group relative to NP201
Procedure: as §1
In order to collect Pharmacokinetic (“PK”) samples, monkeys were tranquilized with ketamine (7-10 mg/kg intramuscularly) in order to collect 1 cc of blood from the saphenous vein. Plasma samples were collected into appropriately labeled collection tubes. One cc blood samples were collected by catheter or venipuncture into EDTA collection tubes for ropinirole plasma concentrations by a validated HPLC with MS/MS detection. The plasma samples were frozen within two hours after collection and remained frozen until analyzed. PK Samples for the Dose Finding Phase (Oral dose) were drawn on days 1 and 14 at 60, 120, 180, 240 and 360 minutes after one oral dose of 1.0 mg/kg. PK Samples for the Experimentation Phase (NP201 implants) were drawn in all […] test groups in order to test the blood levels of ropinirole. […]

MPTP treated monkeys [3] = assay: Clinical Rating Scale (CRS) in primate model of Parkinson's Disease; conditions: NP201 at 1/9th of the oral dose; p<0.05
Procedure: In the MPTP Induction Phase, the monkeys were made bilaterally Parkinsonian with the use of MPTP. Monkeys received an initial dose of 0.3 mg/kg MPTP through a unilateral intracarotid injection and twice weekly injections of 0.3 mg/kg intravenous (i.v.) MPTP until they achieve a score of between 7.0 and 20.5 (e.g., 12 or higher) on the clinical rating scale with moderate bilateral Parkinsonism. Intravenous MPTP is administered at 3-5 day intervals. The actual cumulative number of i.v. MPTP injections is determined by the onset of stable bilateral symptoms. This protracted time course of i.v. MPTP administration allowed for development and evaluation of new Parkinsonian symptoms following each MPTP administration. […]
In the Experimentation Phase, the monkeys were assigned to one of three treatment groups: Group 1—oral ropinirole TID using the mean lowest effective dose determined in the Dose Finding Phase. […]
A Clinical Rating Scale for neurobehavioral examination was used to assess the clinical status of the monkeys under; normal, MPTP, and MPTP+treatment conditions, once per week, according to previously published protocols. […] Subjects were assessed once per week. All groups were assessed one hour after dosing. […] Occurrence of dyskinesia, psychological disturbances and vomiting were also recorded.

variability of plasma levels [2]: much greater variability
SMILES: CCCN(CCC)CCc1cccc2c1CC(=O)N2 [oral ropinirole, 4-(2-di-n-propylaminoethyl)-2(3H)-indolone]
activity levels, Sat-Sun (weekend) (MPTP treated monkeys [1]; days 10-42, versus pre-MPTP baseline and placebo, no active oral agent given on weekend days): resembled placebo with reduced activity relative to baseline; also recorded: indistinguishable from placebo | activity levels, Wed-Fri (MPTP treated monkeys [1]; days 10-42, versus pre-MPTP baseline, oral: peak about 1 hour after each dose during wake cycle): exceeded baseline, pre-MPTP levels | overall pattern of activity (12-hour light/dark cycles) (MPTP treated monkeys [1]; versus pre-MPTP baseline / healthy monkeys): alternating periods of very high activity interspersed with normal levels; also recorded: alternating periods of very high and normal activity | CRS measure versus placebo (MPTP treated monkeys [3]): statistically superior to placebo
